Data on seven compounds can be found in patent US5047419A, “Photodynamic therapy of glioma or mammary carcinoma using seleno- or telluropyrylium salts” (Eastman Kodak Company, priority 1988, dated 1991).

The nature of data set [1]: Quantum efficiency of singlet oxygen generation in air-saturated solution. The class given is physicochemical. The conditions noted are these: air-saturated solution. The source says:
(§1) The ability of the dyes of this invention to function as a cancer-treating agent is in part a reflection of the ability of the dye to generate singlet oxygen in air-saturated solution. (As used herein, "air-saturated solution" means a solution of dye exposed to the atmosphere.) In studying a variety of chalcogenopyrylium dyes, only those dyes containing a selenium or tellurium atom show any appreciable generation of singlet oxygen upon irradiation. Fortuitously, selenopyrylium and telluropyrylium dyes have absorption maxima that are shifted to the red relative to their pyrylium and thiopyrylium analogues. That is, not only are these dyes effective in killing cancer cells because of their high quantum efficiency, but also they generally operate at the most preferred wavelengths, namely those of 700 nm or longer. Table III contains examples of chalcogenopyrylium dyes, their quantum efficiencies for singlet oxygen generation, and their absorption maxima. (In this Table, Ph=Phenyl, Me=Methyl, and t-Bu=tertiary butyl.)

Data set [2] in a line: Absorption maxima (λmax) of chalcogenopyrylium dyes. It counts as physicochemical.
From the text: as §1

The nature of data set [3]: In vitro photodynamic therapy, B-16 cells. The conditions noted are these: mouse, b-16 melanoma cells, dark, read-out: % Surviving Fraction, Dark; for viability at 1 µM: B-16, 1 × 10^-6 M. It counts as cell-based, mouse. The method, then:
(§2) Several selenopyrylium dyes and telluropyrylium dyes from Table I that generated singlet oxygen upon irradiation in air-saturated methanol were examined in vitro in mammalian cell cultures for their effectiveness as agents for photodynamic therapy. […] As controls, HSK1 (normal human skin fibroblasts) and CV-1 (normal monkey kidney cells) were used.
(§3) In vitro cell cultures were grown in antibiotic-free growth medium DMEM-F12 supplemented to 10% with fetal bovine serum and adjusted to 4.5 mM with L-glutamine. DMEM-F12 is a 1:1 mixture of Dulbecco's modified Eagle's medium (Gibco) and Ham's nutrient mixture F12 (Gibco). Prior to cell seeding, multi-well plates were blackened with spray paint, coating the external walls of each well to minimize light scattering from well to well. Subconfluent cell cultures were trypsinized and plated at a concentration of 10^5 cells per 2 cm^2 well. Cells were allowed to incubate overnight at 37° C. in a humidified atmosphere before dye and/or light exposure.
(§4) Stock solutions of the chalcogenopyrylium dyes were prepared at 1 mM concentration by sonication in 95% ethanol in the dark. These stock solutions were diluted with growth medium to the desired concentration. Dyes were protected from light throughout the entire experimental procedure until the time for irradiation. Standard treatment time for dye exposure was 1 hour. The dye containing medium was replaced with fresh growth medium prior to irradiation. Eighteen to twenty-four hours later, the remaining metabolically active cells were evaluated by the MTT colorimetric assay and/or cell counting. Assays were performed in triplicate with standard deviations generally of less than 10%. Percent kill was determined from mean optical density of the treated samples and that of the control (untreated) samples for the MTT analysis and from mean cell counts for these two groups for the cell-counting method. (See Table V).
(§5) Near-infrared and visible light from three sources were employed in these assays. Tungsten light (100-200 mW) was used to assess low milliwatt multiple wavelength effects. An argon-pumped dye laser (Model 150 Aurora, Cooper Lasersonics, Inc., Santa Clara, Calif.) with laser dye LDS 751 (Exciton Chemical Co., Inc., Dayton, Ohio) and a peak wavelength of 785±5 nm was coupled by a […] quartz fiberoptic to a microlens assembly that gave a uniform mode of distribution of light intensity. Thirdly, a laser diode (Model 2430-H2, Spectra Diode Laboratories, Inc., San Jose, Calif. with a fixed wavelength of 800±2 nm provided light energy in the near infrared. The diode was coupled by a 400 μm quartz fiberoptic with a clear and polished end. For laser irradiation experiments, the distance of the fiber tip from the well bottom was adjusted so that the laser irradiation exactly covered the 2 cm^2 target area. A distal power meter (Model 2000, Coherent, Inc., Auburn, Calif.) was used to determine the energy output of the laser source.

In data set [4] the test system is B-16 melanoma (mouse melanoma). The data set can be described thus: In vitro photodynamic therapy, B-16 cells. The class given is cell-based. The note with it: Mus musculus. Here is the method: as §2, §3, §4, §5
Data set [5] can be described thus: In vitro photodynamic therapy, FADU cells. The class given is cell-based, human. The conditions noted are these: human, fadu squamous cell carcinoma, FADU, dark, read-out: % Surviving Fraction, Dark; for viability at 1 µM: 1 × 10^-6 M. Here is the method:
as §2, §3, §4, §5

Data set [6] relates to FADU (human squamous cell carcinoma). Kind of data set: In vitro photodynamic therapy, FADU cells. The class given is cell-based. The note with it: Homo sapiens, read-out: % Surviving Fraction, Light. The method, then: as §2, §3, §4, §5
A short description of data set [7]: In vitro photodynamic treatment, control CV-1 cells. It counts as cell-based, monkey. The note with it: monkey, cv-1 kidney cells, dark, read-out: % Surviving Fraction, Dark; for viability at 1 µM: CV1, 1 × 10^-6 M. The method, then:
as §2, §3, §4, §5

The subject of data set [8] is CV-1 (normal monkey kidney cells). The description is as above. The class given is cell-based. The conditions noted are these: Primates. The method, then: as §2, §3, §4, §5
Data set [9] in a line: In vitro photodynamic therapy, U251 cells. The class given is cell-based, human. The note with it: human, u251 glioma cells, dark, read-out: % Surviving Fraction, Dark; for viability at 1 µM: U251, 1 × 10^-6 M; for viability at 0.1 µM: U251, 1 × 10^-7 M. Here is the method:
as §2, §3, §4, §5

The subject of another data set is U251 (human glioma). The data set can be described thus: In vitro photodynamic therapy, U251 cells. The class given is cell-based. The conditions noted are these: Homo sapiens, U-251, read-out: % Surviving Fraction, Light; for viability at 1 µM: U251, 1 × 10^-6 M; for viability at 0.1 µM: U251, 1 × 10^-7 M. Here is the method: as §2, §3, §4, §5
A further data set can be described thus: Stability in solution. It counts as physicochemical.
Data set [10] in a line: In vitro photodynamic treatment, control HSK1 cells. The note with it: human, hsk1 skin fibroblasts, dark, read-out: % Surviving Fraction, Dark; for viability at 0.1 µM: HSK1, 1 × 10^-7 M. The class given is cell-based, human. The method, then:
as §2, §3, §4, §5

Data set [11] deals with HSK1 (normal human skin fibroblasts). The data set is described as above. It counts as cell-based. The conditions noted are these: Homo sapiens, Skin fibroblast, read-out: % Surviving Fraction, Light; for viability at 0.1 µM: HSK1, 1 × 10^-7 M. The method, then: as §2, §3, §4, §5
Setting [12] is: B16, read-out: % Surviving Fraction, Light.
[13] abbreviates: CV-1, read-out: % Surviving Fraction, Light.
[14] abbreviates: 15 J cm^-2, source A (tungsten).
[15] abbreviates: 50 J cm^-2, source A (tungsten).

Structures are written as SMILES. Where two headings read alike, the source gives them in different places.

As to `CC(C)(C)C1=CC(=CC=Cc2cc(C(C)(C)C)[o+]c(C(C)(C)C)c2)C=C(C(C)(C)C)O1.[Cl-]` [C.E. 3, 2,6-Di-t-butyl-4-[3-(2,6-di-t-butyl-4H-pyran-4-ylidene)-1-propen-1-yl]pyrylium chloride, reference compound], the “Quantum efficiency of singlet oxygen generation Φ(1O2)” value (“Quantum efficiency” for short) in [1] is not above 0.001. The “Absorption maximum λmax” value in data set [2] (H2O) was found to be 595 nm. Also, the viability at 1 µM was found to be 99% in data set [3]; 99% in data set [4] (B16, B-16, 1 × 10^-6 M, 27 J cm^-2, source D (tungsten, 500 nm cutoff), read-out: % Surviving Fraction, Light); 99% in data set [5]; 99% in data set [6] (FADU, 1 × 10^-6 M, 27 J cm^-2, source D (tungsten, 500 nm cutoff)); 100% in data set [7]; 99% in data set [8] (CV-1, CV1, 1 × 10^-6 M, 27 J cm^-2, source D (tungsten, 500 nm cutoff), read-out: % Surviving Fraction, Light).

On to `CC(C)(C)C1=CC(=CC=Cc2cc(C(C)(C)C)[te+]c(C(C)(C)C)c2)C=C(C(C)(C)C)[Te]1` [Dye 4], for which the “Quantum efficiency” value in data set [1] was determined as 0.13. In data set [2] (CH2Cl2), the “Absorption maximum λmax” value is reported as 830 nm. In addition, the viability at 1 µM in data set [9] stood at 100%; in the data set on U251 (human glioma) (50 J cm^-2, source B (dye laser 785 nm)), 75%; in [3], 99%; in data set [4] (setting [12]), 30%; in data set [7], 99%; in data set [8] (setting [13]), 95%.

Turning to `C(=CC=C1C=C(c2ccccc2)[Te]C(c2ccccc2)=C1)C=Cc1cc(-c2ccccc2)[te+]c(-c2ccccc2)c1` [Dye 16], the “Quantum efficiency” value in [1] is 0.005. For the same compound, the “Absorption maximum λmax” value in data set [2] (MeOH) is 1060 nm. The Stability in solution result in “Stability in solution” is on record as “tended to be unstable in solution”.

Take `CC(C)(C)C1=CC(=CC=Cc2cc(C(C)(C)C)[o+]c(C(C)(C)C)c2)C=C(C(C)(C)C)[Te]1` [Dye 5]: the “Quantum efficiency” value in [1] is 0.06. Also, the “Absorption maximum λmax” value in [2] (H2O) is 700 nm. For the same compound, the viability at 0.1 µM is 90% in data set [9]; 58% in the data set with U251 (human glioma) (setting [14]); 99% in [3] (B-16, 1 × 10^-7 M); 0.1% in data set [4] (setting [12]); 99% in [5] (1 × 10^-7 M); 0.05% in [6] (FaDu). Also, the viability at 0.1 µM in data set [10] turned out to be 99%; in [11] (setting [14]), 99%; in [7] (CV1, 1 × 10^-7 M) it was 100%; in data set [8] (setting [13]), 99%.

As for `CC(C)(C)C1=CC(=CC=Cc2cc(C(C)(C)C)[o+]c(C(C)(C)C)c2)C=C(C(C)(C)C)[Se]1` [Dye 9], in [1], the “Quantum efficiency” value came to 0.005. Further, in [2] (H2O), the “Absorption maximum λmax” value is on record as 660 nm. The viability at 1 µM in data set [3] amounted to 99%; in [4] (setting [12]), 0.2%; in [5], 99%; in data set [6] (FaDu), 0.2%; in [7], 100%; in data set [8] (setting [13]), 99%.

On to `CC(C)(C)C1=CC(=CC=Cc2cc(C(C)(C)C)[se+]c(C(C)(C)C)c2)C=C(C(C)(C)C)[Te]1` [Dye 1], for which the “Quantum efficiency” value in data set [1] was found to be 0.09. Also, in [2] (CH2Cl2), the “Absorption maximum λmax” value is on record as 786 nm. For the same compound, the viability at 0.05 µM was determined as 85% in data set [9] (U251, 5 × 10^-8 M); 65% with U251 (human glioma) (U251, 5 × 10^-8 M, 15 J cm^-2, source C (diode laser 800 nm)); 99% in data set [3] (B-16, 5 × 10^-8 M); 0.03% in data set [4] (setting [12]); 99% in data set [5] (5 × 10^-8 M); 0.1% in data set [6] (FaDu). For the same compound, the viability at 0.05 µM in [10] (HSK1, 5 × 10^-8 M) was 99%; in data set [11] (HSK1, 5 × 10^-8 M, 15 J cm^-2, source C (diode laser 800 nm)) it was 97%; in [7] (CV1, 5 × 10^-8 M), 100%; in data set [8] (setting [13]), 99%.

`CC(C)(C)C1=CC(=Cc2cc(C(C)(C)C)[te+]c(C(C)(C)C)c2)C=C(C(C)(C)C)[Te]1` [Dye 12]: in data set [1], the “Quantum efficiency” value was 0.07. In addition, in data set [2] (H2O), the “Absorption maximum λmax” value is listed as 705 nm. Also, the viability at 1 µM came out at 55% in data set [9] and 1% in the data set with U251 (human glioma) (setting [15]). For the same compound, the viability at 0.1 µM in [9] worked out at 83%; in the data set with U251 (human glioma) (setting [15]), 74%; in data set [10] it was 100%; in [11] (setting [15]) it was 99%.
